The text below walks through data of patent publication US20260374766A1, “METHODS FOR TREATING CANCER” (Antares Therapeutics, Inc., priority 2022, published 2026).

The target in one assay is p53 Y220C (Homo sapiens, UniProt P04637, Y220C). The experiment in a line: Luciferase Reporter Assay (Luc), p53 response element, NClH1299 cells with inducible p53 Y220C. Format: cell-based. To be noted: 6 hour; for AC50: read-out: Luc P53 Y220C AC50. On the procedure: Luciferase Reporter Assay Protocol
The cells were then used for p53 reporter assay. 5,000 cells were seeded in each well of 384 plate and cultured in 0.5 ug/mL doxycycline (D3072; Sigma) containing medium for 24 hours before compound treatment. After 6 hour of compound treatment, equal volume of One-Glo reagent (E6110; Promega) was added to each well and the plate was incubated for 5 minutes with shaking at room temperature. The luciferase activity was immediately measured with PheraStar microplate reader.

For the next assay, the system named is NUGC3 p53 Y220C. The assay is described as follows: Cell Proliferation Assay (CellTiter-Glo, CTG), NUGC3 p53 Y220C. Type of assay: cell-based. Particulars: Homo sapiens, NUGC-3, 120 h, 5 days. On the procedure:
(§1) Inducible p53 Y220C and R273H constructs (Tet-One inducible expression system; Takara) were stably expressed in NClH1299 cells by lentiviral transduction. NUGC3, A549, BxPC3, T3M4, HuH7, HCC2935, MFE296, NClH1299, NClH1299-inducible p53 Y220C, and NClH1299-inducible p53 R273H cell lines were used for cell proliferation assay. 250-500 cells were seeded in each well of 384 plate and then compounds were dispensed into each well using Echo or Tecan. After 5 days of incubation, equal volume of CellTiter-Glo reagent (G7570; Promega) was added into each well and the plate was incubated at room temperature for 10 minutes with shaking. The luminescent signal was measured by PheraStar microplate reader and IC50 was calculated.
Background: Cellular ATP, detected with luciferase, serves as a proxy for viable cell number.

In another assay the test system is H1299 p53 Y220C. The experiment in a line: Cell Proliferation Assay (CellTiter-Glo, CTG), H1299 p53 Y220C (NClH1299-inducible p53 Y220C). Type of assay: cell-based. To be noted: Homo sapiens, NCI-H1299, 120 h, 5 days. The protocol: as §1
For a further assay, the system named is H1299 p53 R273H. The experiment in a line: Cell Proliferation Assay (CellTiter-Glo, CTG), H1299 p53 R273H (NClH1299-inducible p53 R273H). Format: cell-based. To be noted: Homo sapiens, NCI-H1299, 120 h, 5 days. The protocol:
as §1

Assay [1] deals with T1, p53 Y220C mutant protein (amino acid residues 94-293) (Homo sapiens, UniProt P04637, Y220C).
T1 construct: p53 Y220C mutant protein (amino acid residues 94-293)
The experiment in a line: Surface Plasmon Resonance (SPR) assay, Kd_kinetic. Type of assay: binding. To be noted: SPR, p53 Y220C, read-out: SPR P53 Y220C KD kinetic. The protocol:
Surface Plasmon Resonance (SPR) Assay Protocol
SPR experiments were performed on a Biacore 8K instrument. […] The running buffer contained 50 mM Tris, pH 7.5, 100 mM NaCl, 1 mM DTT, 0.01% Brij35, 0.05% Tween-20 and 1% DMSO. The assay temperature was maintained at 16 or 20 °C and data were fit into the 1:1 binding model using the Biacore Insight Evaluation software.

The mark [2] stands for this setting: Emax, luciferase reporter, NClH1299 inducible p53 Y220C.
[3] abbreviates: NClH1299-inducible p53 Y220C cells, CellTiter-Glo.
Setting [4] is: NClH1299-inducible p53 R273H cells, CellTiter-Glo.
The mark [5] stands for this setting: AC50, NClH1299 cells with inducible p53 Y220C.
Setting [6] is: Emax, NClH1299 cells with inducible p53 Y220C, 10 uM tool compound as positive control.
The mark [7] stands for this setting: NClH1299-inducible p53 Y220C cells.
Setting [8] is: NClH1299-inducible p53 R273H cells.
Setting [9] is: luciferase reporter, NClH1299 inducible p53 Y220C, 10 uM tool compound as positive control.
[10] abbreviates: luciferase reporter, NClH1299 inducible p53 Y220C.

Structures are written as SMILES. Like-named read-outs stand apart in the source and are kept apart here.

T1 sequence (P04637 94-293, stated change not applied): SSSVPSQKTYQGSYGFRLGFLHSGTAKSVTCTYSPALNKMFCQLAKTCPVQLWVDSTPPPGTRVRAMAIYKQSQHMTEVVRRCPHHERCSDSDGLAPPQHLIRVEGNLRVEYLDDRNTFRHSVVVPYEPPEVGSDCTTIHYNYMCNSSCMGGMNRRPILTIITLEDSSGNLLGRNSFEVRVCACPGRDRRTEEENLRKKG

What is called Emax is the maximal effect, on the per cent scale that the assay sets. A word on the IC50: it is the concentration needed to halve the response being measured. A higher IC50 goes with weaker potency in that assay. For `CNC(=O)c1ccc(NCC#Cc2nc3c(N[C@@H]4C[C@H]5COC[C@H](N5)[C@@H]4F)cccn3c2SC(F)(F)F)c(OC)c1` (relative stereo) [Example 251, rel-4-{[3-(8-{[(1R,5R,6S,7S)-6-fluoro-3-oxa-9-azabicyclo [3.3.1]nonan-7-yl]amino}-3-[(trifluoromethyl)sulfanyl]imidazo[1,2-a]pyridin-2-yl)prop-2-yn-1-yl]amino}-3-methoxy-N-methylbenzamide], the maximal response (Emax) at p53 Y220C (setting [2]) fell in the range of 80 to 90%. In addition, the IC50 is 1500 to 3000 nM in the assay with NUGC3 p53 Y220C (NUGC3 cells, CellTiter-Glo); 1500 to 3000 nM with H1299 p53 Y220C (setting [3]); at least 10000 nM with H1299 p53 R273H (setting [4]).
Usually Kd stands for the free concentration of one partner at which half of the binding sites on the other are occupied at equilibrium, for simple one-to-one binding. Usually AC50 stands for the midpoint of the concentration-response curve, whichever way the signal moves. For the compound `CNC(=O)c1ccc(NCC#Cc2nc3c(NC4CCS(=O)(=O)C4)cccn3c2SC(F)(F)F)c(OC)c1` (single isomer, unassigned) [Example 322], the Kd in assay [1] was in the range of 10 to 100 nM. Moreover, at p53 Y220C (AC50, luciferase reporter, NClH1299 inducible p53 Y220C), the half-maximal activity concentration (AC50) was 750 to 1500 nM. For the same compound, the Emax at p53 Y220C (setting [2]) is above 90%. The half-inhibitory concentration (IC50) with NUGC3 p53 Y220C (NUGC3 cells, CellTiter-Glo) is 750 to 1500 nM; in the assay on H1299 p53 Y220C (setting [3]) it was 750 to 1500 nM; with H1299 p53 R273H (setting [4]), at least 10000 nM.
In the case of `CNC(=O)c1ccc(OC)c(NCC#Cc2cc3c(N[C@@H]4CCN(CC(C)O)C[C@@H]4F)cccn3c2SC(F)(F)F)c1` (single isomer, unassigned) [Example 480, 3-{[3-(8-{[(3S,4R)-3-fluoro-1-[(2R*)-2-hydroxypropyl]piperidin-4-yl]amino}-3-[(trifluoromethyl)sulfanyl]indolizin-2-yl)prop-2-yn-1-yl]amino}-4-methoxy-N-methylbenzamide], the dissociation constant Kd in assay [1] is below 10 nM. Besides, the AC50 on p53 Y220C (setting [5]) was below 750 nM. For the same compound, the Emax at p53 Y220C (setting [6]) is above 90%. The half-maximal inhibitory concentration (IC50) in the assay on NUGC3 p53 Y220C (NUGC3 cells) is below 750 nM; in the assay with H1299 p53 Y220C (setting [7]), below 750 nM; in the assay on H1299 p53 R273H (setting [8]) it was 8000 to 10000 nM.
Turning to `CNC(=O)c1cc(NCC#Cc2cc3c(N[C@H]4CCN(C)C[C@H]4F)cccn3c2SC(F)(F)F)c2nccn2c1` (stereo in doubt) [Example 503, 8-{[3-(8-{[(3R,4S)-3-fluoro-1-methylpiperidin-4-yl]amino}-3-[(trifluoromethyl)sulfanyl]indolizin-2-yl)prop-2-yn-1-yl]amino}-N-methylimidazo[1,2-a]pyridine-6-carboxamide], the dissociation constant Kd in assay [1] was below 10 nM. Besides, the AC50 at p53 Y220C (setting [5]) was below 750 nM. The compound further showed an Emax on p53 Y220C (setting [6]) above 90%. Besides, the results for the half-maximal inhibitory concentration (IC50) in the assay on NUGC3 p53 Y220C (NUGC3 cells), in the assay with H1299 p53 Y220C (setting [7]) and with H1299 p53 R273H (setting [8]) were below 750 nM, below 750 nM and 5000 to 8000 nM, respectively.
Consider `CNC(=O)c1cc(OC)c(NCC#Cc2nc3c(N[C@@H]4CCN(C)C[C@@H]4F)cccn3c2SC(F)(F)F)cn1` [Example 120], for which, in assay [1] (kinetic KD), the Kd was below 10 nM. Besides, on p53 Y220C (setting [9]), the Emax lay in the range of 80 to 90%. Besides, the half-maximal activity concentration (AC50) on p53 Y220C (setting [10]) is below 750 nM. The IC50 in the assay on NUGC3 p53 Y220C (CellTiter-Glo, NUGC3 p53 Y220C) is below 750 nM; in the assay on H1299 p53 Y220C (CellTiter-Glo, H1299 p53 Y220C), below 750 nM; in the assay on H1299 p53 R273H (CellTiter-Glo, H1299 p53 R273H), at least 10000 nM.
For the compound `COc1ccc(C(=O)N(C)C)cc1NCC#Cc1nc2c(N[C@@H]3CCN(C)C[C@@H]3F)cccn2c1SC(F)(F)F` [Example 143], the dissociation constant (Kd) in assay [1] (kinetic KD) is below 10 nM. This compound displayed a maximum response (Emax) at p53 Y220C (setting [9]) above 90%. Moreover, the concentration at half-maximal activity (AC50) on p53 Y220C (setting [10]) is below 750 nM. Moreover, in the assay on H1299 p53 R273H (CellTiter-Glo, H1299 p53 R273H), the half-maximal inhibitory concentration (IC50) is 5000 to 8000 nM.
In turn, `CNC(=O)c1ccnc(NCC#Cc2nc3c(N[C@@H]4CCN(C)C[C@@H]4F)cccn3c2SC(F)(F)F)c1` [Example 150] had an Emax at p53 Y220C (setting [9]) below 70%. The AC50 at p53 Y220C (setting [10]) was above 3000 nM. Further, the IC50 in the assay on NUGC3 p53 Y220C (CellTiter-Glo, NUGC3 p53 Y220C) is above 3000 nM; in the assay with H1299 p53 Y220C (CellTiter-Glo, H1299 p53 Y220C) it was above 3000 nM; in the assay with H1299 p53 R273H (CellTiter-Glo, H1299 p53 R273H) it was at least 10000 nM.
In the case of `CNC(=O)c1cnc(OC)c(NCC#Cc2nc3c(N[C@@H]4CCN(C)C[C@@H]4F)cccn3c2SC(F)(F)F)n1` [Example 157], the dissociation constant (Kd) in assay [1] (kinetic KD) was below 10 nM. On p53 Y220C (setting [9]), this compound showed an Emax of 80 to 90%. At p53 Y220C (setting [10]), the half-maximal activity concentration (AC50) was below 750 nM. The IC50 in the assay on H1299 p53 R273H (CellTiter-Glo, H1299 p53 R273H) is at least 10000 nM.
Take `CNC(=O)c1ccc(NCC#Cc2nc3c(N[C@H]4C[C@@H]5COC[C@@H](N5)[C@H]4F)cccn3c2SC(F)(F)F)c(OC)c1` [Example 279]: the Emax at p53 Y220C (setting [2]) was 70 to 80%. Moreover, the IC50 in the assay on NUGC3 p53 Y220C (NUGC3 cells, CellTiter-Glo) was above 3000 nM; in the assay with H1299 p53 Y220C (setting [3]), above 3000 nM; in the assay on H1299 p53 R273H (setting [4]) it was at least 10000 nM.
